Measured values taken from patent publication US11702469B2, “Recombinant EGFL7, EGFL7 antibodies, and uses thereof” (Ohio State Innovation Foundation, priority 2017, dated 2023).

Experiments:
HES1 [1] = test: DLL4-Fc coated plate NOTCH activation (HES1 qRT-PCR), THP-1; format: cell-based, human
Experimental: (§1) FIG. 24A-24G. EGFL7 prevents activation of NOTCH signaling in AML cells. (FIG. 24A) Overview of experiments using DLL4-FC and IgG-FC control coated plates to induce NOTCH activation. (FIG. 24B) THP-1 cells were pre-treated with 10 μM γ-secretase inhibitor (AVA), 100 μg/ml anti-EGFL7 antibody or 0.25 μM rEGFL7 for 30 min, then transferred to IgG-Fc or DLL4-Fc coated plates. After 4 h of incubation total RNA from THP-1 cells was extracted for qRT-PCR analysis of HES1 with β-ACTIN as internal control. ^###P<0.001 DLL4-FC vs IgG-FC; ***P<0.001 DLL4+AVA, DLL4+rEGFL7, and DLL4+anti-EGFL7 vs DLL4-FC. (FIG. 24C) Primary AML blasts were pretreated with 10 μM γ-secretase inhibitor (AVA), 100 μg/ml anti-EGFL7 antibody or 0.25 μM rEGFL7 for 30 min, then transferred to IgG-Fc or DLL4-Fc coated plates. After 4 h of incubation, total RNA was extracted for RT-PCR analysis of HES1 mRNA with β-ACTIN as internal control. ^###P<0.001 DLL4-Fc vs IgG-Fc; *P<0.05, ***P<0.001 vs DLL4 Fc. THP-1 cells were treated with the indicated concentration of anti-EGFL7 (@E7) then assessed for apoptosis using (FIG. 24D) AnnexinV+ staining and FACS; *P<0.05 (FIG. 24E) Immuno-blotting for PARP1 and Casp3 cleavage. (FIG. 24F) Cell differentiation was assessed by CD11B and CD14 staining 96-hours post anti-EGFL7 treatments; *P<0.05. (FIG. 24G) To determine whether activation of NOTCH by DLL4-Fc could be accentuated by anti-EGFL7 treatment, THP-1 cells were first treated with anti-EGFL7 (100 μg/ml) and then cultured on DLL4-FC or IgG-Fc coated plates and then assessed for apoptosis using AnnexinV+ staining and FACS. *P<0.05 DLL4-Fc and anti-EGFL7; vs DLL4-FC+anti-EGFL7.
Total RNA was extracted using Trizol reagent (Invitrogen, Carlsbad, Calif., USA). cDNA was synthesized using SuperScript III reagents (Invitrogen) according to the manufacturer's instruction. Quantitative Real-Time RT-PCR was performed using commercially available TaqMan Gene Expression Assay primers and the 7900HT Fast Real-Time PCR System (Applied Biosystems, Foster City, Calif., USA). […]

HES1 [2] = test: OP9-DLL1 co-culture NOTCH activation (HES1 RT-PCR), THP-1; format: cell-based, human; details: THP-1 co-cultured with OP9-DLL1
Source text: FIG. 27. EGFL7 prevents NOTCH ligand inactivation of Notch signaling in AML cells. (A) Overview of experiments involving co-culture of THP-1 cells with mouse stromal cells overexpressing DLL1. (B) Total RNA was extracted for RT-PCR analysis of HES1 with β-ACTIN as internal control. ^###P<0.001 OP9-DLL1 vs OP9; *P<0.05, **P<0.01 vs untreated control.
Total RNA was extracted using Trizol reagent (Invitrogen, Carlsbad, Calif., USA). cDNA was synthesized using SuperScript III reagents (Invitrogen) according to the manufacturer's instruction. Quantitative Real-Time RT-PCR was performed using commercially available TaqMan Gene Expression Assay primers and the 7900HT Fast Real-Time PCR System (Applied Biosystems, Foster City, Calif., USA). The expression levels of target genes were normalized to β-ACTIN. Relative expression was calculated by using the comparative 2^−ΔΔct method.
It was next determined whether EGFL7 is inhibiting NOTCH signaling in AML cells by competing with canonical NOTCH ligand binding. To perform these experiments, THP-1 cells were cultured on DLL4-Fc and IgG-Fc (control) coated plates to activate NOTCH signaling. The effect of rEGFL7 and anti-EGFL7 on this DLL4-Fc NOTCH activation was also tested (FIG. 24A). […] For these experiments, co-culture was performed of THP-1 cells with stromal cells (OP9) overexpressing membrane bound DLL1 (OP9-DLL1)^25 (FIG. 27A).

NOTCH signaling = test: Gamma-secretase inhibitor on Parsatuzumab induced NOTCH activation, primary blasts; format: cell-based, human
Experimental: as §1, with “(FIG. 24C) Primary AML blasts were pretreated with 10 μM γ-secretase inhibitor (AVA), 100 μg/ml anti-EGFL7 antibody or 0.25 μM rEGFL7 for 30 min, then transferred to IgG-Fc or DLL4-Fc coated plates. After 4 h of incubation, total RNA was extracted for RT-PCR analysis of HES1 mRNA with β-ACTIN as internal control. ^###P<0.001 DLL4-Fc vs IgG-Fc; *P<0.05, ***P<0.001 vs DLL4 Fc.” left out, “DLL4-FC+anti-EGFL7. […]” for “DLL4-FC+anti-EGFL7.”

FLT3-ITD AML = details: phase I/II study in AML; cited from earlier work
acute myeloid leukemia = details: PSC-833 arm with cytarabine, daunorubicin and etoposide; cited from earlier work

NC(=O)[C@@H](CCC(F)(F)F)N(Cc1ccc(-c2ncon2)cc1F)S(=O)(=O)c1ccc(Cl)cc1 [AVA, Avagacestat]
DLL4-Fc-mediated NOTCH activation (HES1) (HES1 [1]; pre-treated 30 min: 10 μM AVA, 100 μg/ml anti-EGFL7 or 0.25 μM rEGFL7, then 4 h, vs DLL4-FC): significantly reduced | DLL1-mediated NOTCH activation (HES1) (HES1 [2]): significantly reduced | Parsatuzumab induced NOTCH activation (NOTCH signaling): blocked

CCc1nc(C(N)=O)c(Nc2ccc(N3CCC(N4CCN(C)CC4)CC3)c(OC)c2)nc1NC1CCOCC1 [Gilteritinib]
tolerability and safety (FLT3-ITD AML): tolerable, safe

C/C=C/C[C@@H](C)C(=O)[C@H]1C(=O)N[C@@H](C(C)C)C(=O)N(C)CC(=O)N(C)[C@@H](CC(C)C)C(=O)N[C@@H](C(C)C)C(=O)N(C)[C@@H](CC(C)C)C(=O)N[C@@H](C)C(=O)N[C@H](C)C(=O)N(C)[C@@H](CC(C)C)C(=O)N(C)[C@@H](CC(C)C)C(=O)N(C)[C@@H](C(C)C)C(=O)N1C [PSC-833, valspodar]
early deaths (acute myeloid leukemia): excessive early deaths

DLL4-Fc: Recombinant human DLL4 (Fc chimera, ab108557), canonical NOTCH ligand
NOTCH activation assessed by HES1 expression (HES1 [1]; DLL4-Fc vs IgG-Fc coated plates, 4 h): increases in NOTCH activation
